Literature values in US20250009687A1, “COMPOSITIONS AND METHODS USING A COMBINATION OF NUTRIENTS TO SUPPORT COGNITION AND EMOTIONAL HEALTH IN A MAMMAL” (SOCIETE DES PRODUITS NESTLE S.A., priority 2021, published 2025).

System: TFEB
Conditions: Fu X. et al., Experimental Neurology 2021

In the case of `C[C@@H]1O[C@@H](O[C@H]2[C@H](O[C@H]3C[C@]4(C)[C@H](C[C@@H](O)[C@@H]5[C@@H]([C@]6(C)CC[C@H](C(C)(C)O)O6)CC[C@]54C)[C@@]4(C)CC[C@H](O)C(C)(C)[C@H]34)O[C@H](CO)[C@@H](O)[C@@H]2O)[C@H](O)[C@H](O)[C@H]1O` [PF11], the neuroprotection is given as “neuroprotective” and the “Lamp1 and Ctsd mRNA” value (acting through TFEB) is given as “increase”.
